According to patent publication US12116343B2, “Inhibitors of APOL1 and methods of using same” (Vertex Pharmaceuticals Incorporated, priority 2020, dated 2024):

biological target: T1, APOL1 G1 Protein (Homo sapiens, UniProt O14791, I384M/S342G); assay: Trypanosoma brucei brucei lysis assay using APOL1 recombinant protein (AlamarBlue viability); format: cell-based; conditions: Trypanosoma brucei brucei lysis, recombinant APOL1, AlamarBlue; read-out: Trypanosoma Assay (IC50)
T1 sequence (O14791 28-398 S342G/I384M): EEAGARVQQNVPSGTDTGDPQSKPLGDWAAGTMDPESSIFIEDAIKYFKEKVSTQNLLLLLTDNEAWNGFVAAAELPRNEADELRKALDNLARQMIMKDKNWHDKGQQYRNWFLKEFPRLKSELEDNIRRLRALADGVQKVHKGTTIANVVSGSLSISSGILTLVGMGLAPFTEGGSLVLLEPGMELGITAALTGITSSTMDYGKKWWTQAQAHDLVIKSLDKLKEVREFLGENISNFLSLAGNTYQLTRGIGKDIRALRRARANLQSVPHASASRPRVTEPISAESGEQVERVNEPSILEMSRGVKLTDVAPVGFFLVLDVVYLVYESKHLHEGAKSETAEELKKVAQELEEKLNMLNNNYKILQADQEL
How it was run: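 Bloodstream-form T. b. brucei Lister 427 VSG 221, 120,000 parasites/well in phenol red-free, FBS-free medium, lysed by recombinant APOL1 G1 with compound (10-point dose response, 0.1% DMSO final). Viability read by AlamarBlue fluorescence against a parasite standard curve.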

For `O=C(NCC(F)(F)F)[C@H]1C[C@H](c2c(-c3ccc(F)cc3)[nH]c3c(F)cc(F)cc32)C1` [Compound 33], which IC50 is on record?
The IC50 was > 1000 nM.

How did the IC50 turn out when `CC(C#N)(CO)NC(=O)[C@H]1C[C@H](c2c(-c3ccc(F)cc3)[nH]c3c(F)cc(F)cc32)C1` (some centres unmarked) [Compound 191] was run?
Its IC50 is < 250 nM.

With `Cn1ncc(CNC(=O)[C@H]2C[C@H](c3c(-c4ccc(F)cc4)[nH]c4c(F)cc(F)cc43)C2)n1` [Compound 198] as the compound, how does the IC50 read?
The IC50 was < 250 nM.

For `O=C1N[C@H](CO)C[C@@H]1NC(=O)[C@H]1C[C@H](c2c(-c3ccc(F)cc3)[nH]c3c(F)cc(F)cc32)C1` [Compound 209], which IC50 is on record?
Its IC50 is > 1000 nM.

With `O=C([C@H]1C[C@H](c2c(-c3ccc(F)cc3)[nH]c3c(F)cc(F)cc32)C1)N1CCC[C@H]1CO` [Compound 210] as the compound, how does the IC50 read?
Its IC50 is 250 to 1000 nM.

With `O=C(N[C@H]1CC[C@@H]1O)[C@H]1C[C@H](c2c(-c3ccc(F)cc3)[nH]c3c(F)cc(F)cc32)C1` [Compound 178] as the compound, how does the IC50 read?
Its IC50 is 250 to 1000 nM.

How did the IC50 turn out when `CC(O)(CO)CNC(=O)[C@H]1C[C@H](c2c(-c3ccc(F)cc3)[nH]c3c(F)cc(F)cc32)C1` (mixture of isomers) [Compound 216] was run?
Its IC50 is > 1000 nM.

How did the IC50 turn out when `O=C(N[C@@H]1CCOC1)[C@H]1C[C@H](c2c(-c3ccc(F)cc3)[nH]c3c(F)cc(F)cc32)C1` [Compound 19] was run?
Its IC50 is 250 to 1000 nM.

How did the IC50 turn out when `O=C([C@H]1C[C@H](c2c(-c3ccc(F)cc3)[nH]c3c(F)cc(F)cc32)C1)N1CCC[C@@H]1CO` [Compound 192] was run?
The IC50 was < 250 nM.

Which IC50 does the source give for `O=C(NC[C@@H](O)C(F)(F)F)[C@H]1C[C@H](c2c(-c3ccc(F)cc3)[nH]c3c(F)cc(F)cc32)C1` [Compound 177] here?
Its IC50 is 250 to 1000 nM.

With `O=C(NCCn1cccc1)[C@H]1C[C@H](c2c(-c3ccc(F)cc3)[nH]c3c(F)cc(F)cc32)C1` [Compound 34] as the compound, how does the IC50 read?
The IC50 was 250 to 1000 nM.

How did the IC50 turn out when `O=C(NCCn1cncn1)[C@H]1C[C@H](c2c(-c3ccc(F)cc3)[nH]c3c(F)cc(F)cc32)C1` [Compound 36] was run?
The IC50 was < 250 nM.

`CC(CO)N(C)C(=O)[C@H]1C[C@H](c2c(-c3ccc(F)cc3)[nH]c3c(F)cc(F)cc32)C1` (mixture of isomers) [Compound 193] was tested. Which IC50 did it give?
The IC50 was 250 to 1000 nM.

For `O=C([C@H]1C[C@H](c2c(-c3ccc(F)cc3)[nH]c3c(F)cc(F)cc32)C1)N1CCOC[C@@H]1CO` [Compound 219], which IC50 is on record?
The IC50 was < 250 nM.

How did the IC50 turn out when `COCCNC(=O)[C@H]1C[C@H](c2c(-c3ccc(F)cc3)[nH]c3c(F)cc(F)cc32)C1` [Compound 12] was run?
The IC50 was 250 to 1000 nM.

With `O=C(NC[C@H](O)C(F)(F)F)[C@H]1C[C@H](c2c(-c3ccc(F)cc3)[nH]c3c(F)cc(F)cc32)C1` [Compound 176] as the compound, how does the IC50 read?
Its IC50 is < 250 nM.

For `O=C(N[C@H]1CNC[C@@H]1O)[C@H]1C[C@H](c2c(-c3ccc(F)cc3)[nH]c3c(F)cc(F)cc32)C1` [Compound 212], which IC50 is on record?
The IC50 was 250 to 1000 nM.

With `CN(C(=O)[C@H]1C[C@H](c2c(-c3ccc(F)cc3)[nH]c3c(F)cc(F)cc32)C1)C1COCC1O` (some centres unmarked) [Compound 205] as the compound, how does the IC50 read?
The IC50 was > 1000 nM.

For `NC(=O)[C@@H](CO)NC(=O)[C@H]1C[C@H](c2c(-c3ccc(F)cc3)[nH]c3c(F)cc(F)cc32)C1` [Compound 221], which IC50 is on record?
Its IC50 is < 250 nM.

For `Cc1ccn(CCNC(=O)[C@H]2C[C@H](c3c(-c4ccc(F)cc4)[nH]c4c(F)cc(F)cc43)C2)n1` [Compound 35], which IC50 is on record?
Its IC50 is 250 to 1000 nM.

`O=C([C@H]1C[C@H](c2c(-c3ccc(F)cc3)[nH]c3c(F)cc(F)cc32)C1)N1CC[C@H]1CO` [Compound 206] was tested. Which IC50 did it give?
The IC50 was < 250 nM.

Which IC50 does the source give for `C[C@@H](NC(=O)[C@H]1C[C@H](c2c(-c3ccc(F)cc3)[nH]c3c(F)cc(F)cc32)C1)C(N)=O` [Compound 28] here?
The IC50 was > 1000 nM.

With `O=C([C@H]1C[C@H](c2c(-c3ccc(F)cc3)[nH]c3c(F)cc(F)cc32)C1)N1C[C@@H](O)[C@H](O)C1` [Compound 227] as the compound, how does the IC50 read?
Its IC50 is 250 to 1000 nM.

`O=C(N[C@@H]1CCC[C@H]1O)[C@H]1C[C@H](c2c(-c3ccc(F)cc3)[nH]c3c(F)cc(F)cc32)C1` [Compound 182] was tested. Which IC50 did it give?
The IC50 was > 1000 nM.

For `CC(C)(CO)NC(=O)[C@H]1C[C@H](c2c(-c3ccc(F)cc3)[nH]c3c(F)cc(F)cc32)C1` [Compound 31], which IC50 is on record?
Its IC50 is 250 to 1000 nM.

For `CC(CO)NC(=O)[C@H]1C[C@H](c2c(-c3ccc(F)cc3)[nH]c3c(F)cc(F)cc32)C1` (mixture of isomers) [Compound 13], which IC50 is on record?
Its IC50 is < 250 nM.

With `Cn1cc(CNC(=O)[C@H]2C[C@H](c3c(-c4ccc(F)cc4)[nH]c4c(F)cc(F)cc43)C2)cn1` [Compound 38] as the compound, how does the IC50 read?
Its IC50 is 250 to 1000 nM.

How did the IC50 turn out when `O=C(N[C@H]1C[C@H](O)C1)[C@H]1C[C@H](c2c(-c3ccc(F)cc3)[nH]c3c(F)cc(F)cc32)C1` [Compound 20] was run?
Its IC50 is 250 to 1000 nM.

How did the IC50 turn out when `O=C(NC1(CO)CC(F)(F)C1)[C@H]1C[C@H](c2c(-c3ccc(F)cc3)[nH]c3c(F)cc(F)cc32)C1` [Compound 202] was run?
The IC50 was < 250 nM.

Which IC50 does the source give for `O=C(NC[C@H]1CC[C@@H](CO)O1)[C@H]1C[C@H](c2c(-c3ccc(F)cc3)[nH]c3c(F)cc(F)cc32)C1` [Compound 189] here?
Its IC50 is > 1000 nM.

Which IC50 does the source give for `Cc1cc(NC(=O)[C@H]2C[C@H](c3c(-c4ccc(F)cc4)[nH]c4c(F)cc(F)cc43)C2)no1` [Compound 17] here?
The IC50 was 250 to 1000 nM.

Which IC50 does the source give for `O=C1CCC(NC(=O)[C@H]2C[C@H](c3c(-c4ccc(F)cc4)[nH]c4c(F)cc(F)cc43)C2)C(=O)N1` (some centres unmarked) [Compound 26] here?
The IC50 was 250 to 1000 nM.
